Consider 13 compounds from ChEMBL document CHEMBL4406814, “Furocoumarins as multi-target agents in the treatment of cystic fibrosis” (Eur J Med Chem, 2019).

What all share (type): cell-based
Test [1] deals with IB3-1. The test is described as follows: Inhibition of TNF-alpha induced NFkappaB in human IB3-1 cells assessed as reduction in IL-8 mRNA expression at 1 uM preincubated for 5 hrs followed by TNF-alpha stimulation measured after 24 hrs by RT-qPCR analysis relative to control. (Quantitative PCR measures a nucleic acid by following its amplification.)
Test [2] deals with IB3-1. Description: Inhibition of TNF-alpha induced NFkappaB in human IB3-1 cells assessed as reduction in IL-8 mRNA expression at 10 uM preincubated for 5 hrs followed by TNF-alpha stimulation measured after 24 hrs by RT-qPCR analysis relative to control.
Test [3] can be described thus: Inhibition of TNF-alpha induced NFkappaB in human IB31 cells assessed as reduction in IL-8 mRNA expression preincubated for 5 hrs followed by TNF-alpha stimulation measured after 24 hrs by RT-qPCR analysis. The note with it: IB3-1.

Broadly, the inhibition is the drop in the measured response relative to a control, in per cent. With `Cc1cc2c(CO)cc(=O)oc2c2c(C)coc12`, the inhibition with IB3-1 [1] worked out at 51%; in the test on IB3-1 [2], 52%. In general, IC50 refers to the concentration at which inhibition is half-maximal. `CCc1cc2c(C)cc(=O)oc2c2c(C)coc12`: the IC50 in test [3] was 24 µM. As to `Cc1oc2c(c(C)cc3oc(=O)cc(C)c32)c1C`, the inhibition in the test with IB3-1 [1] was found to be 66%; with IB3-1 [2] it was 47%. For the compound `Cc1cc2c(C(C)C)cc(=O)oc2c2c(C)coc12`, in test [3], the IC50 was found to be 18.9 µM. Regarding `CCCc1cc(=O)oc2c1cc(C)c1occ(C)c12`, the IC50 in test [3] was determined as 21.9 µM. With `Cc1oc2c(C)cc3c(C)cc(=O)oc3c2c1C`, the inhibition in the test on IB3-1 [1] is 57%; with IB3-1 [2], 56%. The corresponding values for `Cc1cc2c(C)cc3oc(=O)cc(C)c3c2o1` are 68% and 81%. `CCCc1cc(=O)oc2c1cc(CC)c1occ(C)c12`: the IC50 in test [3] came out at 19.8 µM. Regarding `CCc1cc(=O)oc2c1cc(C)c1occ(C)c12`, in test [3], the IC50 is 8 µM. For `Cc1coc2c1c(C)cc1oc(=O)cc(C)c12`, the inhibition in the test on IB3-1 [1] came out at 73%; in the test on IB3-1 [2], 52%. Take `CCc1cc(=O)oc2c1cc(CC)c1occ(C)c12`: the IC50 in test [3] was 17.8 µM. Consider `Cc1cc(=O)oc2c1ccc1oc(CN)cc12`, for which the values for the inhibition with IB3-1 [1] and in the test on IB3-1 [2] were 55% and 83%, respectively. For `CCc1cc2c(C(C)C)cc(=O)oc2c2c(C)coc12`, the IC50 in test [3] came out at 7.4 µM.
